Patent US20250186436A1 (4E Therapeutics, Inc., priority 2021, published 2025)
Where “and” joins values, the source holds several entries; their conditions need not be identical. Equal values may be shown once. Read-outs that look alike come from different tables or passages of the source.

How the values were obtained:
Format in all cases: in vivo
[1] = PK study in male Sprague-Dawley rats dosed once per day for five days, PO 25 mg/kg, 0.5% HPMC (Example 8); conditions: single PO 25 mg/kg dose, 0.5% HPMC suspension
Protocol: Example 8. PK study of 4ET-03-053 in male Sprague-Dawley rats dosed once per day for five days (P0; 25 mg/kg; 0.5HPMC aqueous suspension)
Table 24 provides plasma and brain concentrations at 24 hr after the last dose of five daily PO doses of 4ET-03-053.

[2] = as above; conditions: 0.5% HPMC suspension
[3] = test system: IL-6 evoked grimace in ICR mice; assay: IL-6 evoked grimace test; conditions: PO 1 hr prior to IL-6 (4ET-03-053: 10 mg/kg)
Protocol: Male and female Institute for Cancer Research (ICR) mice were used in these experiments. Mice were bred in house at University of Texas at Dallas and used at between 12 and 24 weeks of age. Mice were habituated to plexiglass boxes of approximately 4×6 inches in size with openable tops. Habituation took place over 2 days with animals exposed to the boxes for at least 30 min. A blinded observer scored baseline grimacing using the method previously described by Mogil and colleagues (Langford D J, et al. “Coding of facial expressions of pain in the laboratory mouse” Nat Methods 7:447-449 (2010)). On test day, mice were given test compounds 1 hr prior to injection of interleukin 6 (human recombinant IL-6, R&D Systems) which was given at a dose of 0.1 ng in saline via an intraplantar injection as described previously (Moy J K, et al. “The MNK-eIF4E Signaling Axis Contributes to Injury-Induced Nociceptive Plasticity and the Development of Chronic Pain” J Neurosci. 37:7481-7499 (2017)). Test compounds were given orally (PO) via a flexible oral gavage canula built for mice. 4ET-03-053 is efficacious in the IL-6 evoked grimace test in mice (PO; 10 mg/kg).
Effect sizes were calculated per mouse by subtracting the baseline grimace score from the sum of the grimace scores for 1 and 3 hr time points.

[4] = PK study in male Sprague-Dawley rats, IV 0.5 mg/kg and PO 1 mg/kg in 10% DMA/PG (Example 5); conditions: for MRT inf: MRTinf
Protocol: Example 5: PK study of 4ET-03-053 in male Sprague-Dawley rats with IV (0.5 mg kg; 10% DMI 15% EtOH 35% PG 40% NS) and PO (1 mg kg; 10% DMA PG) dosing
In male Sprague-Dawley rats, following IV administration with 0.5 mg/kg 4ET-03-053, plasma concentrations declined in a multiphasic manner with an initial concentration (Co) of 1.24 ug/mL and a last measurable concentration (Clast) of 33.2 ng/mL at 24 h post dose.
Table 15 provides plasma and brain concentrations at 2 hr after a single P0 dose of 1 mg/kg.

[5] = PK study in male Sprague-Dawley rats dosed once per day for five days, PO 10 mg/kg, 0.5% HPMC (Example 7); conditions: 0.5% HPMC suspension
[6] = male Sprague-Dawley rats, IV 0.5 mg/kg, 10% DMI:15% EtOH:35% PG:40% NS, individual animals, 0.5 mg/kg
[7] = male, Sprague-Dawley, rat, in vivo, iv, 0.5 mg/kg
[8] = male, Sprague-Dawley, rat, in vivo, po, 1 mg/kg

Compound: Cc1cc(Nc2cc(N)ncn2)c(=O)n2c1C(=O)NC21CCC2(CC2)CC1 [4ET-03-053, 6″-((6-Aminopyrimidin-4-yl)amino)-8″-methyl-2″H-dispiro[cyclopropane-1,1′-cyclohexane-4′,3″-imidazo[1,5-a]pyridine]-1″,5″-dione]
- AUCinf/D ([1]; individual animals, 25 mg/kg): 12599 kg·h/kL and 14552 kg·h/kL and 13803 kg·h/kL
- AUClast ([1]; individual animals, 25 mg/kg): 336.46 µg·h/mL and 313.078 µg·h/mL
- Clast ([1]; individual animals, 25 mg/kg): 2660 ng/mL and 2870 ng/mL
- Cmax/D ([1]; individual animals, 25 mg/kg): 976 kg/kL and 984 kg/kL and 1152 kg/kL
- F ([1]; individual animals, 25 mg/kg): 24.5% and 28.3% and 26.8%
- MRTinf ([1]; individual animals, 25 mg/kg): 8.89 h and 9.60 h
- t1/2 ([1]; individual animals, 25 mg/kg): 6.94 h and 6.50 h
- AUCinf/D ([1]; mean (n = 3)): 13651 kg·h/kL
- Cmax/D ([1]; mean (n = 3)): 1037 kg/kL
- half-life ([2]; male, Sprague-Dawley, rat, in vivo, po, 25 mg/kg, single PO 25 mg/kg dose, individual animals): 422 min
- concentration at 24 h ([2]; male, Sprague-Dawley, rat, in vivo, po, 25 mg/kg, single PO 25 mg/kg dose, mean (n = 3), read-out: Clast): 2890 ng/mL
- concentration at 24 h ([2]; male, Sprague-Dawley, rat, in vivo, po, 25 mg/kg, single PO 25 mg/kg, at 24 hr, read-out: last measurable concentration): 2890 ng/mL
- F ([2]; single PO 25 mg/kg dose, mean (n = 3)): 26.5%
- time to peak plasma concentration ([2]; single PO 25 mg/kg): ≤ 2 h
- efficacy in the IL-6 evoked grimace test [3]: efficacious
- AUClast [4, 6]: 4654 ng·h/mL and 3767 ng·h/mL
- Clast [4, 6]: 36.7 ng/mL and 29.7 ng/mL
- C0 [4, 7]: 1240 ng/mL
- AUC(0-inf) ([4]; male, Sprague-Dawley, rat, in vivo, iv, 0.5 mg/kg, AUCinf): 4080 ng·h/mL
- clearance ([4]; male, Sprague-Dawley, rat, in vivo, iv, 0.5 mg/kg, CLp): 2.04 mL/min/kg
- MRT inf [4, 7]: 7.69 h
- Vd ([4]; male, Sprague-Dawley, rat, in vivo, iv, 0.5 mg/kg, Vss): 0.942 L/kg
- concentration at 24 h ([4]; male, Sprague-Dawley, rat, in vivo, iv, 0.5 mg/kg, male Sprague-Dawley rats, 0.5 mg/kg IV, at 24 h, read-out: last measurable concentration (Clast)): 33.2 ng/mL
- AUC(0-t) ([4]; male, Sprague-Dawley, rat, in vivo, iv, 0.5 mg/kg, male Sprague-Dawley rats, IV 0.5 mg/kg, 10% DMI:15% EtOH:35% PG:40% NS, individual animals, read-out: AUClast): 4030 ng·h/mL
- concentration at 24 h ([4]; male, Sprague-Dawley, rat, in vivo, iv, 0.5 mg/kg, male Sprague-Dawley rats, IV 0.5 mg/kg, 10% DMI:15% EtOH:35% PG:40% NS, individual animals, read-out: Clast): 33.1 ng/mL
- AUC(0-t) ([4]; male, Sprague-Dawley, rat, in vivo, iv, 0.5 mg/kg, male Sprague-Dawley rats, IV 0.5 mg/kg, 10% DMI:15% EtOH:35% PG:40% NS, mean (n = 3), read-out: AUClast): 4150 ng·h/mL
- concentration at 24 h ([4]; male, Sprague-Dawley, rat, in vivo, iv, 0.5 mg/kg, male Sprague-Dawley rats, IV 0.5 mg/kg, 10% DMI:15% EtOH:35% PG:40% NS, mean (n = 3), read-out: Clast): 33.2 ng/mL
- Vd ([4]; male, Sprague-Dawley, rat, in vivo, iv, 0.5 mg/kg, steady-state volume of distribution (Vss)): 0.87 L/kg
- clearance ([4]; male, Sprague-Dawley, rat, in vivo, iv, 0.5 mg/kg, systemic clearance (CLp)): 1.87 mL/min/kg
- half-life ([4]; male, Sprague-Dawley, rat, in vivo, iv, 0.5 mg/kg, t1/2): 436 min
- half-life ([4]; male, Sprague-Dawley, rat, in vivo, iv, 0.5 mg/kg, terminal half-life (t1/2)): 440 min
- AUC(0-inf) ([4]; male, Sprague-Dawley, rat, in vivo, iv, 0.5 mg/kg, total systemic exposure (AUCinf)): 4500 ng·h/mL
- Tmax [4, 8]: 30 min
- bioavailability [4, 8]: 76.7%
- time to peak plasma concentration [4, 8]: ≤ 30 min
- AUC(0-inf) ([4]; male, Sprague-Dawley, rat, in vivo, po, 1 mg/kg, AUCinf): 7020 ng·h/mL
- AUC(0-t) ([4]; male, Sprague-Dawley, rat, in vivo, po, 1 mg/kg, AUClast): 6110 ng·h/mL
- concentration at 24 hr ([4]; male, Sprague-Dawley, rat, in vivo, po, 1 mg/kg, Clast): 74.6 ng/mL
- Cmax ([4]; male, Sprague-Dawley, rat, in vivo, po, 1 mg/kg, Cmax): 683 ng/mL
- MRT inf [4, 8]: 10.6 h
- concentration at 24 hr ([4]; male, Sprague-Dawley, rat, in vivo, po, 1 mg/kg, last measurable concentration): 74.6 ng/mL
- Cmax ([4]; male, Sprague-Dawley, rat, in vivo, po, 1 mg/kg, peak plasma concentration (Cmax)): 683 ng/mL
- half-life ([4]; male, Sprague-Dawley, rat, in vivo, po, 1 mg/kg, t1/2): 554 min
- half-life ([4]; male, Sprague-Dawley, rat, in vivo, po, 1 mg/kg, terminal half-life (t1/2)): 554 min
- AUC(0-inf) ([4]; male, Sprague-Dawley, rat, in vivo, po, 1 mg/kg, total systemic exposure (AUCinf)): 6900 ng·h/mL
- MRT inf ([5]; male, Sprague-Dawley, rat, in vivo, po, 10 mg/kg, single PO 10 mg/kg dose, mean (n = 3)): 7.43 h
- AUC(0-inf) ([5]; male, Sprague-Dawley, rat, in vivo, po, 10 mg/kg, single PO 10 mg/kg, read-out: total systemic exposure (AUCinf)): 272 µg·h/mL
- t1/2 ([5]; single PO 10 mg/kg dose, individual animals, 10 mg/kg): 4.83 h and 5.11 h
- time to peak plasma concentration ([5]; single PO 10 mg/kg): ≤ 2 h
